The results in this text go back to patent publication US7897627B2, “Heteroaryl derivatives as orexin receptor antagonists” (Hoffmann-La Roche Inc., priority 2007, dated 2011).

For the test, the target named is T1, human orexin-2 (hOX2) receptor (Homo sapiens, UniProt O43614).
T1 construct: expressed in transfected cells
T1 sequence (O43614 1-444): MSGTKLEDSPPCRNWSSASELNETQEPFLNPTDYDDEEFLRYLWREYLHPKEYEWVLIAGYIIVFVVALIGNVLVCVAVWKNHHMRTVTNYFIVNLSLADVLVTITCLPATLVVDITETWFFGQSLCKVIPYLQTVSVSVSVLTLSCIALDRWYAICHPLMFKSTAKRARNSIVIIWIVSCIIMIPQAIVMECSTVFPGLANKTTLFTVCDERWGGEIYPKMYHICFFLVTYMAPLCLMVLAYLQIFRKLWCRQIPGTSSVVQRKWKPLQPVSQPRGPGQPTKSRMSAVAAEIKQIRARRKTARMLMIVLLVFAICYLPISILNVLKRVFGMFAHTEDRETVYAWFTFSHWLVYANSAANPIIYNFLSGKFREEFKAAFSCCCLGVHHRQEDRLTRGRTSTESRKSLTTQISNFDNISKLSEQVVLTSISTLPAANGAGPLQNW
Description: Intracellular Ca2+ mobilization assay (FLIPR), CHO(dHFr-) cells expressing hOX2, orexin-A as agonist. It is filed as cell-based. Conditions: antagonist Kb=IC50/(1+[A]/EC50); orexin-A at EC80; CHO(dHFr-)-OX2R cells; antagonist applied 25 min before agonist. The protocol:
Intracellular Ca^2+ Mobilization Assay
The Chinese Hamster Ovary (dHFr-) mutant cell line stably expressing human orexin-1 (hOX1) or human orexin-2 (hOX2) receptors were maintained in Dulbecco's Modified Eagle Medium (1×) with GlutaMax™1, 4500 mg/L D-Glucose and Sodium Pyruvate (Catalog No. 31966-021, Invitrogen, Carlsbad, Calif.), 5% dialyzed fetal calf serum (Catalog No. 26400-044), 100 μg/ml penicillin and 100 μg/ml streptomycin. The cells were seeded at 5×10^4 cells/well in the poly-D-lysine treated, 96-well, black/clear-bottomed plates (Catalog No. BD356640, BD Biosciences, Palo Alto, Calif.). 24 h later, the cells were loaded for 1 h at 37° C. with 4 μM Flou-4 acetoxymethyl ester (Catalog No. F-14202, Molecular Probes, Eugene, Oreg.) in FLIPR buffer (1×HBSS, 20 mM HEPES, 2.5 mM Probenecid). Hanks' Balanced Salt Solution (HBSS) (10×) (catalog No. 14065-049) and HEPES (1M) (catalog No. 15630-056) were purchased from Invitrogen, Carlsbad, Calif. Probenecid (250 mM) (catalog No. P8761) was from Sigma, Buchs, Switzerland. The cells were washed five times with FLIPR buffer to remove excess dye and intracellular calcium mobilization, [Ca^2−]i were measured using a Fluorometric Imaging Plate Reader (FLIPR-96, Molecular Devices, Menlo Park, Calif.) as described previously (Malherbe et al., Mol. Pharmacol., 64, 823-832, 2003). Orexin A (catalog No. 1455, Toris Cookson Ltd, Bristol, UK) was used as agonist. Orexin A ([…] stock solution in DMSO) was diluted in FLIPR buffer+0.1% BSA. The EC50 and EC80 values of orexin-A were measured daily from standard agonist concentration-response curves in CHO(dHFr-)-OX1R and -OX2R cell lines. All compounds were dissolved in 100% DMSO. Inhibition curves were determined by addition of 11 concentrations (0.0001-10 μM) of inhibitory compounds and using EC80 value of orexin-A as agonist (a concentration which gave 80% of max agonist response, determined daily). The antagonists were applied 25 min (incubation at 37° C.) before the application of the agonist. Responses were measured as peak increase in fluorescence minus basal, normalized to the maximal stimulatory effect induced by EC80 value of orexin-A or orexin-B. Inhibition curves were fitted according to the Hill equation: y=100/(1+(x/IC50)^nH), where nH=slope factor using Excel-fit 4 software (Microsoft).
Kb values were calculated according to the following equation Kb=IC50/(1+[A]/EC50) where A is the concentration of agonist added which is very close to agonist EC80 value, and IC50 and EC50 values were derived from the antagonist inhibition and orexin-A or B agonist curves, respectively.
A general note: A change in cytosolic calcium serves as a functional read-out for many receptors and channels.

One may read the Kb as the equilibrium dissociation constant of an antagonist, usually derived from a functional assay. A low value points to higher antagonist affinity. As for `Cc1ccc(C(F)(F)F)c(C(=O)N2CC[C@@H](Nc3nc4c(F)cccc4s3)C2)c1` [Example 124, [(R)-3-(4-Fluoro-benzothiazol-2-ylamino)-pyrrolidin-1-yl]-(5-methyl-2-trifluoromethyl-phenyl)-methanone], the Kb was 0.0363 µM. This lies in the double-digit nanomolar range.

In turn, `Cc1noc(-c2ccccc2C(=O)N2CC[C@@H](Nc3nc4c(F)cccc4s3)C2)n1` [Example 126, [(R)-3-(4-Fluoro-benzothiazol-2-ylamino)-pyrrolidin-1-yl]-[2-(3-methyl-[1,2,4]oxadiazol-5-yl)-phenyl]-methanone] had a Kb of 0.0144 µM. Compared with the last molecule, the Kb is about 2.5-fold lower.

The molecule `O=C(c1ccccc1OC(F)(F)C(F)F)N1CC[C@@H](Nc2nc3cc(F)cc(F)c3s2)C1` [Example 132, [(R)-3-(5,7-Difluoro-benzothiazol-2-ylamino)-pyrrolidin-1-yl]-[2-(1,1,2,2-tetrafluoro-ethoxy)-phenyl]-methanone] had a Kb of 0.016 µM.

Regarding `Cc1onc(-c2ccccc2)c1C(=O)N1CC[C@@H](Nc2nc3cc(F)cc(F)c3s2)C1` [Example 134, [(R)-3-(5,7-Difluoro-benzothiazol-2-ylamino)-pyrrolidin-1-yl]-(5-methyl-3-phenyl-isoxazol-4-yl)-methanone], the Kb came out at 0.0228 µM.

Regarding `Cc1noc(-c2ccccc2C(=O)N2CC[C@@H](Nc3nc4cc(F)cc(F)c4s3)C2)n1` [Example 135, [(R)-3-(5,7-Difluoro-benzothiazol-2-ylamino)-pyrrolidin-1-yl]-[2-(3-methyl-[1,2,4]oxadiazol-5-yl)-phenyl]-methanone], the Kb turned out to be 0.0394 µM.

As for `O=C(c1ccccc1OC(F)(F)C(F)F)N1CC[C@@H](Nc2nc3cccc(F)c3o2)C1` [Example 141, [(R)-3-(7-Fluoro-benzooxazol-2-ylamino)-pyrrolidin-1-yl]-[2-(1,1,2,2-tetrafluoro-ethoxy)-phenyl]-methanone], the Kb came to 0.0138 µM.

As for `O=C(c1ccccc1OC(F)(F)F)N1CC[C@@H](Nc2nc3ccc(F)c(F)c3o2)C1` [Example 148, [(R)-3-(6,7-Difluoro-benzooxazol-2-ylamino)-pyrrolidin-1-yl]-(2-trifluoromethoxy-phenyl)-methanone], the Kb was found to be 0.0386 µM. This Kb lies about 2.8-fold higher than the previous one.

The molecule `O=C(c1ccccc1OC(F)(F)C(F)F)N1CC[C@@H](Nc2nc3ccc(F)c(F)c3o2)C1` [Example 149, [(R)-3-(6,7-Difluoro-benzooxazol-2-ylamino)-pyrrolidin-1-yl]-[2-(1,1,2,2-tetrafluoro-ethoxy)-phenyl]-methanone] showed a Kb of 0.0072 µM. Against the preceding molecule, the Kb is about 5.4-fold lower.

As for `Cc1ccc(C(F)(F)F)c(C(=O)N2CC[C@@H](Nc3nc4ccc(F)c(F)c4o3)C2)c1` [Example 150, [(R)-3-(6,7-Difluoro-benzooxazol-2-ylamino)-pyrrolidin-1-yl]-(5-methyl-2-trifluoromethyl-phenyl)-methanone], the Kb came out at 0.0136 µM.

In turn, `Cc1onc(-c2ccccc2)c1C(=O)N1CC[C@@H](Nc2nc3ccc(F)c(F)c3o2)C1` [Example 151, [(R)-3-(6,7-Difluoro-benzooxazol-2-ylamino)-pyrrolidin-1-yl]-(5-methyl-3-phenyl-isoxazol-4-yl)-methanone] came in with a Kb of 0.0355 µM.

For `Cc1nc(C(=O)N2CC[C@@H](Nc3nc4ccc(F)c(F)c4o3)C2)c(-c2ccccc2)s1` [Example 155, [(R)-3-(6,7-Difluoro-benzooxazol-2-ylamino)-pyrrolidin-1-yl]-(2-methyl-5-phenyl-thiazol-4-yl)-methanone], the Kb was determined as 0.0304 µM. The Kb values of the last two molecules are within 1.5-fold of each other.

In turn, `O=C(c1ccccc1OC(F)(F)F)N1CC[C@@H](Nc2nc3ccc(F)cc3o2)C1` [Example 157, [(R)-3-(6-Fluoro-benzooxazol-2-ylamino)-pyrrolidin-1-yl]-(2-trifluoromethoxy-phenyl)-methanone] registered a Kb of 0.0247 µM.

In turn, `O=C(c1ccccc1OC(F)(F)C(F)F)N1CC[C@@H](Nc2nc3ccc(F)cc3o2)C1` [Example 158, [(R)-3-(6-Fluoro-benzooxazol-2-ylamino)-pyrrolidin-1-yl]-[2-(1,1,2,2-tetrafluoro-ethoxy)-phenyl]-methanone] showed a Kb of 0.0039 µM.

With `Cc1ccc(C(F)(F)F)c(C(=O)N2CC[C@@H](Nc3nc4ccc(F)cc4o3)C2)c1` [Example 159, [(R)-3-(6-Fluoro-benzooxazol-2-ylamino)-pyrrolidin-1-yl]-(5-methyl-2-trifluoromethyl-phenyl)-methanone], the Kb came out at 0.0205 µM.

Take `Cc1nc(C(=O)N2CC[C@@H](Nc3nc4ccc(F)cc4o3)C2)c(-c2ccccc2)s1` [Example 164, [(R)-3-(6-Fluoro-benzooxazol-2-ylamino)-pyrrolidin-1-yl]-(2-methyl-5-phenyl-thiazol-4-yl)-methanone]: the Kb was 0.047 µM.

Molecule `O=C(c1ccccc1C(F)(F)F)N1CC[C@@H](Nc2cnc3cc(F)c(F)cc3n2)C1` [Example 165, [(R)-3-(6,7-Difluoro-quinoxalin-2-ylamino)-pyrrolidin-1-yl]-(2-trifluoromethyl-phenyl)-methanone] displayed a Kb of 0.0185 µM. This Kb is about 2.5-fold lower than that of the molecule before.

Turning to `O=C(c1ccccc1OC(F)(F)F)N1CC[C@@H](Nc2cnc3cc(F)c(F)cc3n2)C1` [Example 166, [(R)-3-(6,7-Difluoro-quinoxalin-2-ylamino)-pyrrolidin-1-yl]-(2-trifluoromethoxy-phenyl)-methanone], the Kb came to 0.009 µM.

`O=C(c1ccccc1OC(F)(F)C(F)F)N1CC[C@@H](Nc2cnc3cc(F)c(F)cc3n2)C1` [Example 167, [(R)-3-(6,7-Difluoro-quinoxalin-2-ylamino)-pyrrolidin-1-yl]-[2-(1,1,2,2-tetrafluoro-ethoxy)-phenyl]-methanone]: the Kb was determined as 0.001 µM. This Kb is about 9-fold lower than that of the molecule before.

Regarding `Cc1onc(-c2ccccc2)c1C(=O)N1CC[C@@H](Nc2cnc3cc(F)c(F)cc3n2)C1` [Example 168, [(R)-3-(6,7-Difluoro-quinoxalin-2-ylamino)-pyrrolidin-1-yl]-(5-methyl-3-phenyl-isoxazol-4-yl)-methanone], the Kb amounted to 0.0038 µM. Against the preceding molecule, the Kb is about 3.8-fold higher.

Molecule `Cc1noc(-c2ccccc2C(=O)N2CC[C@@H](Nc3cnc4cc(F)c(F)cc4n3)C2)n1` [Example 169, [(R)-3-(6,7-Difluoro-quinoxalin-2-ylamino)-pyrrolidin-1-yl]-[2-(3-methyl-[1,2,4]oxadiazol-5-yl)-phenyl]-methanone] came in with a Kb of 0.0021 µM.

Take `Cc1ccc(Cl)c(C(=O)N2CC[C@@H](Nc3cnc4cc(F)c(F)cc4n3)C2)c1` [Example 170, (2-Chloro-5-methyl-phenyl)-[(R)-3-(6,7-difluoro-quinoxalin-2-ylamino)-pyrrolidin-1-yl]-methanone]: the Kb came out at 0.0129 µM.

`COc1ccc(C)cc1C(=O)N1CC[C@@H](Nc2cnc3cc(F)c(F)cc3n2)C1` [Example 171, [(R)-3-(6,7-Difluoro-quinoxalin-2-ylamino)-pyrrolidin-1-yl]-(2-methoxy-5-methyl-phenyl)-methanone]: the Kb came to 0.0245 µM.

Take `Cc1nc(C(=O)N2CC[C@@H](Nc3cnc4cc(F)c(F)cc4n3)C2)c(-c2ccccc2)s1` [Example 172, [(R)-3-(6,7-Difluoro-quinoxalin-2-ylamino)-pyrrolidin-1-yl]-(2-methyl-5-phenyl-thiazol-4-yl)-methanone]: the Kb amounted to 0.0032 µM.

`O=C(c1ccccc1OC(F)(F)C(F)F)N1CC[C@@H](Nc2cnc3cc(Cl)ccc3n2)C1` [Example 175, [(R)-3-(6-Chloro-quinoxalin-2-ylamino)-pyrrolidin-1-yl]-[2-(1,1,2,2-tetrafluoro-ethoxy)-phenyl]-methanone] displayed a Kb of 0.0187 µM.
